The target of this experiment is T1, UDP-3-O-acyl-N-acetylglucosamine deacetylase (Pseudomonas aeruginosa (strain ATCC 15692 / DSM 22644 / CIP 104116 / JCM 14847 / LMG 12228 / 1C / PRS 101 / PAO1), UniProt P47205).
T1 sequence (P47205 whole entry): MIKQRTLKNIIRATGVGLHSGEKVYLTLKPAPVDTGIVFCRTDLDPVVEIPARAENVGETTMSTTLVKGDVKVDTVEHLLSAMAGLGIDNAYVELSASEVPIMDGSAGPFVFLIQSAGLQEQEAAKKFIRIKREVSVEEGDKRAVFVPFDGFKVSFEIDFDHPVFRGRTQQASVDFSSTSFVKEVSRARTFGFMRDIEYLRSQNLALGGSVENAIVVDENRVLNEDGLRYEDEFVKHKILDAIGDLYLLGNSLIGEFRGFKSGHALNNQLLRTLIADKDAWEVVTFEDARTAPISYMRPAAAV
In words: Inhibition Assay. The source says:
The LpxC inhibitors were used as the reference for development of flexible alignment-based pharamcophore, pharamcophore mapping study.
`CN(C)c1ccc(C2=N[C@@H](C(=O)NO)CO2)cc1` [CS273]: the half-maximal inhibitory concentration (IC50) amounted to 4.9 µM.
Under `CCCc1cc(C2=N[C@@H](C(=O)NO)CO2)cc(OC(F)(F)F)c1OC` [LpxC Inhibitor, L1] stands 0.5 µM; under `O=C(NO)[C@H]1COC(c2ccc(COc3cccc([N+](=O)[O-])c3)cc2)=N1` [LpxC Inhibitor, L2], 0.56 µM; under `Cc1cc(C2=N[C@@H](C(=O)NO)CO2)ccc1F` [LpxC Inhibitor, L3], 1.2 µM.
On to `C=CCOc1ccc(C2=N[C@@H](C(=O)NO)CO2)cc1C(F)(F)F` [LpxC Inhibitor, L4], for which the IC50 came to 2.2 µM.
`O=C(N[C@@H](CO)C(=O)NO)c1n[nH]c2ccccc12` [LpxC Inhibitor, L5] yielded a half-maximal inhibitory concentration (IC50) of 13 µM.
Under `O=C(NO)[C@H]1COC(c2ccc(OCc3cccc(F)c3)c(C(F)(F)F)c2)=N1` [LpxC Inhibitor, L6] stands 0.25 µM.
`O=C(NO)[C@H]1COC(c2cc(F)cc(C(F)(F)F)c2)=N1` [LpxC Inhibitor, L7] had an IC50 of 25 µM. This IC50 is about 100-fold higher than that of the compound before.
Compound `O=C(NO)[C@H]1COC(c2n[nH]c3ccccc23)=N1` [LpxC Inhibitor, L9] registered a half-inhibitory concentration (IC50) of 5.5 µM.
Next, `CCOc1cc(C2=N[C@@H](C(=O)NO)CO2)ccc1F` [LpxC Inhibitor, L10]: 1 µM.
Next, `CCCCn1nc(C2=N[C@@H](C(=O)NO)CO2)c2ccccc21` [LpxC Inhibitor, L11]: 10 µM; `CCCCn1nc2ccccc2c1C1=N[C@@H](C(=O)NO)CO1` [LpxC Inhibitor, L12]: 12 µM.
For `CCCc1cc(C(=O)N[C@@H](CO)C(=O)NO)cc(OC(C)(C)C)c1OC` [LpxC Inhibitor, L13], the IC50 is more than 50 µM.
With `CCCc1cc(C2=N[C@H](C(=O)NO)CS2)cc(OC(F)(F)F)c1OC` [LpxC Inhibitor, L14], the IC50 came to 17.8 µM.
In turn, `COc1ccc(C2=N[C@H](C(=O)NO)CO2)cc1OC(F)(F)F` [LpxC Inhibitor, L15] yielded an IC50 of 0.16 µM.
`O=C(NO)[C@@H]1COC(c2ccc(OCc3cccc([N+](=O)[O-])c3)cc2)=N1` [LpxC Inhibitor, L16] gave an IC50 of 1 µM.
Consider `O=C(NO)[C@@H]1COC(c2ccc(O)cc2)=N1` [LpxC Inhibitor, L17], for which the half-maximal inhibitory concentration (IC50) is more than 30 µM.
Under `Cc1ccc(C2=N[C@H](C(=O)NO)CS2)cc1` [LpxC Inhibitor, L18] stands 38.5 µM.

For orientation: IC50 means the concentration needed to halve the response being measured.
